Assays:
Format in all cases: in vivo
[1] = system: Italian ryegrass (Lolium multiflorum); assay: Test A postemergence; details: 0 to 100 scale
Text: (§1) Seeds of plant species selected from barnyardgrass (Echinochloa crus-galli), kochia (Kochia scoparia), ragweed (common ragweed, Ambrosia elatior), Italian ryegrass (Lolium multiflorum), large (Lg) crabgrass (Digitaria sanguinalis), giant foxtail (Setaria faberii), morningglory (Ipomoea spp.), pigweed (Amaranthus retroflexus), velvetleaf (Abutilon theophrasti), wheat (Triticum aestivum), and corn (Zea mays) were planted into a blend of loam soil and sand and treated preemergence with a directed soil spray using test chemicals formulated in a non-phytotoxic solvent mixture which included a surfactant.
(§2) At the same time, plants selected from these crop and weed species and also blackgrass (Alopecurus myosuroides), and galium (catchweed bedstraw, Galium aparine) were planted in pots containing the same blend of loam soil and sand and treated with postemergence applications of test chemicals formulated in the same manner. Plants ranged in height from 2 to 10 cm and were in the one- to two-leaf stage for the postemergence treatment. Treated plants and untreated controls were maintained in a greenhouse for approximately 10 days, after which time all treated plants were compared to untreated controls and visually evaluated for injury. Plant response ratings, summarized in Table A, are based on a 0 to 100 scale where 0 is no effect and 100 is complete control. A dash (-) response means no test result.

[2] = system: blackgrass (Alopecurus myosuroides); assay: Test A postemergence; details: 0 to 100 scale
Text: as §1, §2

[3] = system: corn (Zea mays); assay: Test A postemergence; details: 0 to 100 scale
Text: as §1, §2

[4] = system: ragweed (common ragweed, Ambrosia elatior); assay: Test A postemergence; details: 0 to 100 scale
Text: as §1, §2

[5] = system: kochia (Kochia scoparia); assay: Test A postemergence; details: 0 to 100 scale
Text: as §1, §2

[6] = system: giant foxtail (Setaria faberii); assay: Test A postemergence; details: 0 to 100 scale
Text: as §1, §2

[7] = system: wheat (Triticum aestivum); assay: Test A postemergence; details: 0 to 100 scale
Text: as §1, §2

[8] = system: barnyardgrass (Echinochloa crus-galli); assay: Test A postemergence; details: 0 to 100 scale
Text: as §1, §2

[9] = system: galium (catchweed bedstraw, Galium aparine); assay: Test A postemergence; details: 0 to 100 scale
Text: as §1, §2

[10] = system: pigweed (Amaranthus retroflexus); assay: Test A postemergence; details: 0 to 100 scale
Text: as §1, §2

[11] = system: ducksalad (Heteranthera limosa); assay: Test B flooded paddy; details: 250 g ai/ha, Flood, 13 to 15 days, scale 0 (no effect) to 100 (complete control)
Text: (§3) At time of treatment, test pots were flooded to 3 cm above the soil surface, treated by application of test compounds directly to the paddy water, and then maintained at that water depth for the duration of the test. Treated plants and controls were maintained in a greenhouse for 13 to 15 days, after which time all species were compared to controls and visually evaluated. […] A dash (-) response means no test result.

[12] = system: sedge, umbrella (small-flower umbrella sedge, Cyperus difformis); assay: Test B flooded paddy; details: 250 g ai/ha, Flood, 13 to 15 days, scale 0 (no effect) to 100 (complete control)
Text: as §3

[13] = system: rice (Oryza sativa); assay: Test B flooded paddy; details: 250 g ai/ha, Flood, 13 to 15 days, scale 0 (no effect) to 100 (complete control)
Text: as §3

[14] = system: barnyardgrass (Echinochloa crus-galli); assay: Test B flooded paddy; details: 250 g ai/ha, Flood, 13 to 15 days, scale 0 (no effect) to 100 (complete control)
Text: as §3

[15] = system: Italian ryegrass (Lolium multiflorum); assay: Test A preemergence; details: 0 to 100 scale (0 no effect, 100 complete control)
Text: as §1, §2

[16] = system: ragweed (common ragweed, Ambrosia elatior); assay: Test A preemergence; details: 0 to 100 scale (0 no effect, 100 complete control)
Text: as §1, §2

[17] = system: kochia (Kochia scoparia); assay: Test A preemergence; details: 0 to 100 scale (0 no effect, 100 complete control)
Text: as §1, §2

[18] = system: giant foxtail (Setaria faberii); assay: Test A preemergence; details: 0 to 100 scale (0 no effect, 100 complete control)
Text: as §1, §2

[19] = system: barnyardgrass (Echinochloa crus-galli); assay: Test A preemergence; details: for Barnyardgrass plant response rating: 0 to 100 scale (0 no effect, 100 complete control); for Plant response rating, Barnyardgrass: 0 to 100 scale
Text: as §1, §2

[20] = system: pigweed (Amaranthus retroflexus); assay: Test A preemergence; details: 0 to 100 scale (0 no effect, 100 complete control)
Text: as §1, §2

| Structure (SMILES) | Plant response rating, Ryegrass, Italian ([1]; 31 g ai/ha) | Plant response rating, Ryegrass, Italian ([1]; 125 g ai/ha) | Plant response rating, Blackgrass ([2]; 31 g ai/ha) | Plant response rating, Blackgrass ([2]; 125 g ai/ha) | Plant response rating, Corn ([3]; 31 g ai/ha) | Plant response rating, Corn ([3]; 125 g ai/ha) | Plant response rating, Ragweed ([4]; 31 g ai/ha) | Plant response rating, Ragweed ([4]; 125 g ai/ha) | Plant response rating, Kochia ([5]; 31 g ai/ha) | Plant response rating, Kochia ([5]; 125 g ai/ha) | Plant response rating, Foxtail, Giant ([6]; 31 g ai/ha) | Plant response rating, Foxtail, Giant ([6]; 125 g ai/ha) | Plant response rating, Wheat ([7]; 31 g ai/ha) | Plant response rating, Wheat ([7]; 125 g ai/ha) | Plant response rating, Barnyardgrass ([8]; 31 g ai/ha) | Plant response rating, Barnyardgrass ([8]; 125 g ai/ha) | Plant response rating, Galium ([9]; 31 g ai/ha) | Plant response rating, Galium ([9]; 125 g ai/ha) | Plant response rating, Pigweed ([10]; 31 g ai/ha) | Plant response rating, Pigweed ([10]; 125 g ai/ha) | other results |
| --- | --- | --- | --- | --- | --- | --- | --- | --- | --- | --- | --- | --- | --- | --- | --- | --- | --- | --- | --- | --- | --- |
| N#Cc1cccc(Oc2ncc(Cl)cn2)c1Oc1ccc(C(F)(F)F)nn1 [Compound 26] | 0 | 0 | 0 | 30 | 0 | 20 | 30 | 30 | 40 | 60 | 10 | 30 | 0 | 10 | 0 | 20 | 30 | 50 | 50 | 80 | Plant response rating, Ducksalad [11]: 70; Plant response rating, Sedge, Umbrella [12]: 60; Plant response rating, Rice [13]: 0; Plant response rating, Barnyardgrass [14]: 0; Ryegrass, Italian plant response rating ([15]; 31 g ai/ha): 0; Ryegrass, Italian plant response rating ([15]; 125 g ai/ha): 0; Ragweed plant response rating ([16]; 31 g ai/ha): 0; Ragweed plant response rating ([16]; 125 g ai/ha): 20; Kochia plant response rating ([17]; 31 g ai/ha): 20; Kochia plant response rating ([17]; 125 g ai/ha): 30; Foxtail, Giant plant response rating ([18]; 31 g ai/ha): 20; Foxtail, Giant plant response rating ([18]; 125 g ai/ha): 60; Barnyardgrass plant response rating ([19]; 31 g ai/ha): 0; Plant response rating, Barnyardgrass ([19]; 125 g ai/ha): 20; Pigweed plant response rating ([20]; 31 g ai/ha): 90; Pigweed plant response rating ([20]; 125 g ai/ha): 100 |
| Fc1ccc(F)c(Oc2ncc(C(F)(F)F)cn2)c1Oc1ncc(C(F)(F)F)cn1 [Compound 30] | 0 | 0 | 0 | 30 | 0 | 0 | 0 | 0 | 0 | 0 | 0 | 10 | 0 | 0 | 0 | 0 | 60 | 70 | 60 | 70 | Plant response rating, Ducksalad [11]: 0; Plant response rating, Sedge, Umbrella [12]: 0; Plant response rating, Rice [13]: 0; Plant response rating, Barnyardgrass [14]: 0; Ryegrass, Italian plant response rating ([15]; 31 g ai/ha): 0; Ryegrass, Italian plant response rating ([15]; 125 g ai/ha): 0; Ragweed plant response rating ([16]; 31 g ai/ha): 0; Ragweed plant response rating ([16]; 125 g ai/ha): 0; Kochia plant response rating ([17]; 31 g ai/ha): 10; Kochia plant response rating ([17]; 125 g ai/ha): 20; Foxtail, Giant plant response rating ([18]; 31 g ai/ha): 10; Foxtail, Giant plant response rating ([18]; 125 g ai/ha): 50; Barnyardgrass plant response rating ([19]; 31 g ai/ha): 0; Plant response rating, Barnyardgrass ([19]; 125 g ai/ha): 10; Pigweed plant response rating ([20]; 31 g ai/ha): 90; Pigweed plant response rating ([20]; 125 g ai/ha): 100 |
| N#Cc1cccc(Oc2ncc(Cl)cn2)c1Oc1ccc(OC(F)(F)F)cc1 [Compound 33] | 0 | 10 | 0 | 10 | 0 | 10 | 0 | 10 | 20 | 40 | 10 | 20 | 0 | 0 | 0 | 10 | 10 | 30 | 30 | 80 | Plant response rating, Ducksalad [11]: 0; Plant response rating, Sedge, Umbrella [12]: 0; Plant response rating, Rice [13]: 0; Plant response rating, Barnyardgrass [14]: 0; Ryegrass, Italian plant response rating ([15]; 31 g ai/ha): 0; Ryegrass, Italian plant response rating ([15]; 125 g ai/ha): 0; Ragweed plant response rating ([16]; 31 g ai/ha): 0; Ragweed plant response rating ([16]; 125 g ai/ha): 0; Kochia plant response rating ([17]; 31 g ai/ha): 0; Kochia plant response rating ([17]; 125 g ai/ha): 0; Foxtail, Giant plant response rating ([18]; 31 g ai/ha): 10; Foxtail, Giant plant response rating ([18]; 125 g ai/ha): 40; Barnyardgrass plant response rating ([19]; 31 g ai/ha): 0; Plant response rating, Barnyardgrass ([19]; 125 g ai/ha): 10; Pigweed plant response rating ([20]; 31 g ai/ha): 0; Pigweed plant response rating ([20]; 125 g ai/ha): 30 |
| N#Cc1cccc(Oc2ncc(C(F)(F)F)cn2)c1Oc1ncc(C(F)(F)F)cn1 [Compound 35] | 0 | 30 | 10 | 50 | 0 | 30 | 10 | 20 | 60 | 90 | 0 | 20 | 0 | 0 | 0 | 40 | 40 | 70 | 70 | 100 | Plant response rating, Ducksalad [11]: 60; Plant response rating, Sedge, Umbrella [12]: 60; Plant response rating, Rice [13]: 40; Plant response rating, Barnyardgrass [14]: 0; Ryegrass, Italian plant response rating ([15]; 31 g ai/ha): 0; Ryegrass, Italian plant response rating ([15]; 125 g ai/ha): 10; Ragweed plant response rating ([16]; 31 g ai/ha): 0; Ragweed plant response rating ([16]; 125 g ai/ha): 10; Kochia plant response rating ([17]; 31 g ai/ha): 0; Kochia plant response rating ([17]; 125 g ai/ha): 60; Foxtail, Giant plant response rating ([18]; 31 g ai/ha): 30; Foxtail, Giant plant response rating ([18]; 125 g ai/ha): 90; Barnyardgrass plant response rating ([19]; 31 g ai/ha): 0; Plant response rating, Barnyardgrass ([19]; 125 g ai/ha): 50; Pigweed plant response rating ([20]; 31 g ai/ha): 100; Pigweed plant response rating ([20]; 125 g ai/ha): 100 |
| Fc1ccc(Oc2ccc(C(F)(F)F)cn2)c(Oc2ncc(Cl)cn2)c1 [Compound 45, 5-chloro-2-[5-fluoro-[2-[5-(trifluoromethyl)pyridin-2-yl]oxy]phenoxy]pyrimidine] | 0 | 0 | 0 | 30 | 0 | 30 | 0 | 20 | 20 | 80 | 0 | 0 | 0 | 20 | 0 | 0 | 60 | 70 | 20 | 20 | Plant response rating, Ducksalad [11]: 75; Plant response rating, Sedge, Umbrella [12]: 70; Plant response rating, Rice [13]: 0; Plant response rating, Barnyardgrass [14]: 0; Ryegrass, Italian plant response rating ([15]; 31 g ai/ha): 0; Ryegrass, Italian plant response rating ([15]; 125 g ai/ha): 0; Ragweed plant response rating ([16]; 31 g ai/ha): 0; Ragweed plant response rating ([16]; 125 g ai/ha): 10; Kochia plant response rating ([17]; 31 g ai/ha): 0; Kochia plant response rating ([17]; 125 g ai/ha): 10; Foxtail, Giant plant response rating ([18]; 31 g ai/ha): 30; Foxtail, Giant plant response rating ([18]; 125 g ai/ha): 100; Barnyardgrass plant response rating ([19]; 31 g ai/ha): 0; Barnyardgrass plant response rating ([19]; 125 g ai/ha): 30; Pigweed plant response rating ([20]; 31 g ai/ha): 0; Pigweed plant response rating ([20]; 125 g ai/ha): 0 |

From patent US20170190671A1, “BIS(ARYL)CATECHOL DERIVATIVES AS HERBICIDES” (E I DU PONT DE NEMOURS AND COMPANY, priority 2014, published 2017)
